Test results taken from patent US20120225135A1 (priority 2010, published 2012).

Legend:
[1] = Residual ClO2 after contact with effluents or tap water (amperometric titration); type: physicochemical; settings: for ClO2 residual: tap water with ammonium ion, nitrites, nitrates, neutral pH, dose 19.2 mg/L; for Residual ClO2: trickling filters effluents
Total Count = assay: Disinfection of effluents, total count; type: cell-based; settings: for Total Count: effluents, ClO2 dose 9.86 mg/L, 30 minutes; for Total Count per 100 mL: trickling filters effluents
Total Coliform = assay: Disinfection of effluents, total coliforms; type: cell-based; settings: for Total Coliforms: effluents, ClO2 dose 9.86 mg/L, 30 minutes; for Total Coliform per 100 mL: trickling filters effluents
Confirmed Coliform = assay: Disinfection of effluents, confirmed coliforms; type: cell-based; settings: for Confirmed Coliforms: effluents, ClO2 dose 9.86 mg/L, 30 minutes; for Confirmed Coliform per 100 mL: trickling filters effluents
E-Coli Phage = assay: Disinfection of effluents, E. coli phage; type: cell-based; settings: ClO2 dose 9.86 mg/L, 30 minutes
[2] = ClO2 dose 2.7 mg/L, contact time 5 min
[3] = ClO2 dose 2.7 mg/L, contact time 20 min
[4] = ClO2 dose 2.7 mg/L, contact time 35 min
[5] = ClO2 dose 5.0 mg/L, contact time 15 min
[6] = ClO2 dose 5.0 mg/L, contact time 30 min
[7] = ClO2 dose 5.0 mg/L, contact time 45 min
[8] = ClO2 dose 10.8 mg/L, contact time 5 min
[9] = ClO2 dose 10.8 mg/L, contact time 20 min
[10] = ClO2 dose 10.8 mg/L, contact time 35 min

Question: With `[O][Cl+][O-]` [Chlorine Dioxide, chlorine dioxide] as the compound, how does the ClO2 residual ([1]; 3 hrs) read?
Answer: Its ClO2 residual is 0.03 mg/L as ClO2.

Question: And the ClO2 residual ([1]; 24 hrs)?
Answer: Its ClO2 residual is 0.08 mg/L as ClO2.

Question: And the “Residual ClO2” value ([1]; dose 2.7 mg/L, contact time 5 min)?
Answer: The value was 0 mg/L as ClO2.

Question: What about the “Residual ClO2” value ([1]; dose 2.7 mg/L, contact time 20 min) of the same compound?
Answer: Its value is 0 mg/L as ClO2.

Question: What about the “Residual ClO2” value ([1]; dose 2.7 mg/L, contact time 35 min) of the same compound?
Answer: The value was 0 mg/L as ClO2.

Question: What about the “Residual ClO2” value ([1]; dose 7.8 mg/L, contact time 5 min) of the same compound?
Answer: Its value is 1.28 mg/L as ClO2.

Question: What about the “Residual ClO2” value ([1]; dose 7.8 mg/L, contact time 20 min) of the same compound?
Answer: Its value is 1.03 mg/L as ClO2.

Question: And the “Residual ClO2” value ([1]; dose 7.8 mg/L, contact time 35 min)?
Answer: Its value is 0.84 mg/L as ClO2.

Question: And the “Residual ClO2” value ([1]; dose 10.8 mg/L, contact time 5 min)?
Answer: The value was 3.10 mg/L as ClO2.

Question: And the “Residual ClO2” value ([1]; dose 10.8 mg/L, contact time 20 min)?
Answer: Its value is 2.17 mg/L as ClO2.

Question: And the “Residual ClO2” value ([1]; dose 10.8 mg/L, contact time 35 min)?
Answer: Its value is 2.07 mg/L as ClO2.

Question: What about the “Total Count” value (Total Count; pH initial 4.6, final 4.4) of the same compound?
Answer: The value was 5 MPN per 100 ml.

Question: And the “Total Count” value (Total Count; pH initial 5.5, final 5.6)?
Answer: The value was 15 MPN per 100 ml.

Question: What about the “Total Count” value (Total Count; pH initial 6.5, final 6.7) of the same compound?
Answer: The value was 30 MPN per 100 ml.

Question: What about the “Total Count” value (Total Count; pH initial 7.5, final 7.6) of the same compound?
Answer: The value was 1 × 10^2 MPN per 100 ml.

Question: And the “Total Count” value (Total Count; pH initial 8.2, final 8.1)?
Answer: Its value is 2 × 10^2 MPN per 100 ml.

Question: What about the “Total Count” value (Total Count; pH initial 9.1, final 9.2) of the same compound?
Answer: The value was 2.5 × 10^3 MPN per 100 ml.

Question: And the “Total Count” value (Total Count; pH initial 10.0, final 10.0)?
Answer: Its value is 6.8 × 10^2 MPN per 100 ml.

Question: What about the “Total Count per 100 mL” value (Total Count; [2]) of the same compound?
Answer: Its value is 6.75 × 10^7 per 100 mL.

Question: And the “Total Count per 100 mL” value (Total Count; [3])?
Answer: The value was 5.3 × 10^7 per 100 mL.

Question: And the “Total Count per 100 mL” value (Total Count; [4])?
Answer: Its value is 3.1 × 10^7 per 100 mL.

Question: What about the “Total Count per 100 mL” value (Total Count; [5]) of the same compound?
Answer: The value was 2.0 × 10^6 per 100 mL.

Question: What about the “Total Count per 100 mL” value (Total Count; [6]) of the same compound?
Answer: Its value is 1.6 × 10^5 per 100 mL.

Question: What about the “Total Count per 100 mL” value (Total Count; [7]) of the same compound?
Answer: Its value is 9.0 × 10^4 per 100 mL.

Question: What about the “Total Count per 100 mL” value (Total Count; [8]) of the same compound?
Answer: Its value is 1.2 × 10^5 per 100 mL.

Question: What about the “Total Count per 100 mL” value (Total Count; [9]) of the same compound?
Answer: Its value is 2.9 × 10^4 per 100 mL.

Question: What about the “Total Count per 100 mL” value (Total Count; [10]) of the same compound?
Answer: The value was 2.5 × 10^4 per 100 mL.

Question: And the “Total Coliforms” value (Total Coliform; pH initial 4.6, final 4.4)?
Answer: The value was 4.5 MPN per 100 ml.

Question: And the “Total Coliforms” value (Total Coliform; pH initial 5.5, final 5.6)?
Answer: The value was 7.8 MPN per 100 ml.

Question: What about the “Total Coliforms” value (Total Coliform; pH initial 6.5, final 6.7) of the same compound?
Answer: The value was 7.8 MPN per 100 ml.

Question: And the “Total Coliforms” value (Total Coliform; pH initial 7.5, final 7.6)?
Answer: Its value is 49 MPN per 100 ml.

Question: And the “Total Coliforms” value (Total Coliform; pH initial 8.2, final 8.1)?
Answer: The value was 4.6 × 10^2 MPN per 100 ml.

Question: And the “Total Coliforms” value (Total Coliform; pH initial 9.1, final 9.2)?
Answer: Its value is 5.4 × 10^3 MPN per 100 ml.

Question: What about the “Total Coliforms” value (Total Coliform; pH initial 10.0, final 10.0) of the same compound?
Answer: The value was 2.4 × 10^4 MPN per 100 ml.

Question: And the “Total Coliform per 100 mL” value (Total Coliform; [2])?
Answer: The value was 2.4 × 10^7 per 100 mL.

Question: And the “Total Coliform per 100 mL” value (Total Coliform; [3])?
Answer: Its value is 1.3 × 10^7 per 100 mL.

Question: What about the “Total Coliform per 100 mL” value (Total Coliform; [4]) of the same compound?
Answer: The value was 2.4 × 10^6 per 100 mL.

Question: What about the “Total Coliform per 100 mL” value (Total Coliform; [5]) of the same compound?
Answer: Its value is 2.4 × 10^6 per 100 mL.

Question: And the “Total Coliform per 100 mL” value (Total Coliform; [6])?
Answer: The value was 7.9 × 10^3 per 100 mL.

Question: And the “Total Coliform per 100 mL” value (Total Coliform; [7])?
Answer: Its value is 2.4 × 10^3 per 100 mL.

Question: And the “Total Coliform per 100 mL” value (Total Coliform; [8])?
Answer: Its value is 1.3 × 10^3 per 100 mL.

Question: What about the “Total Coliform per 100 mL” value (Total Coliform; [9]) of the same compound?
Answer: Its value is 3.3 × 10^2 per 100 mL.

Question: And the “Confirmed Coliforms” value (Confirmed Coliform; pH initial 4.6, final 4.4)?
Answer: Its value is 2 MPN per 100 ml.

Question: And the “Confirmed Coliforms” value (Confirmed Coliform; pH initial 5.5, final 5.6)?
Answer: The value was 2 MPN per 100 ml.

Question: What about the “Confirmed Coliforms” value (Confirmed Coliform; pH initial 6.5, final 6.7) of the same compound?
Answer: The value was 4.5 MPN per 100 ml.

Question: And the “Confirmed Coliforms” value (Confirmed Coliform; pH initial 7.5, final 7.6)?
Answer: Its value is 17 MPN per 100 ml.

Question: And the “Confirmed Coliforms” value (Confirmed Coliform; pH initial 8.2, final 8.1)?
Answer: The value was 33 MPN per 100 ml.

Question: And the “Confirmed Coliforms” value (Confirmed Coliform; pH initial 9.1, final 9.2)?
Answer: The value was 7.9 × 10^2 MPN per 100 ml.

Question: And the “Confirmed Coliforms” value (Confirmed Coliform; pH initial 10.0, final 10.0)?
Answer: The value was 1.3 × 10^4 MPN per 100 ml.

Question: What about the “Confirmed Coliform per 100 mL” value (Confirmed Coliform; [2]) of the same compound?
Answer: Its value is 1.3 × 10^7 per 100 mL.

Question: What about the “Confirmed Coliform per 100 mL” value (Confirmed Coliform; [3]) of the same compound?
Answer: Its value is 2.4 × 10^7 per 100 mL.

Question: What about the “Confirmed Coliform per 100 mL” value (Confirmed Coliform; [4]) of the same compound?
Answer: The value was 2.4 × 10^6 per 100 mL.

Question: And the “Confirmed Coliform per 100 mL” value (Confirmed Coliform; [5])?
Answer: Its value is 2.4 × 10^6 per 100 mL.

Question: What about the “Confirmed Coliform per 100 mL” value (Confirmed Coliform; [6]) of the same compound?
Answer: The value was 1.1 × 10^2 per 100 mL.

Question: What about the “Confirmed Coliform per 100 mL” value (Confirmed Coliform; [8]) of the same compound?
Answer: The value was 1.3 × 10^3 per 100 mL.

Question: And the “Confirmed Coliform per 100 mL” value (Confirmed Coliform; [9])?
Answer: The value was 14 per 100 mL.

Question: And the “Confirmed Coliform per 100 mL” value (Confirmed Coliform; [10])?
Answer: Its value is 7.8 per 100 mL.

Question: And the “E-Coli Phage” value (E-Coli Phage; pH initial 4.6, final 4.4)?
Answer: Its value is 0 MPN per 100 ml.

Question: And the “E-Coli Phage” value (E-Coli Phage; pH initial 5.5, final 5.6)?
Answer: The value was 0 MPN per 100 ml.

Question: What about the “E-Coli Phage” value (E-Coli Phage; pH initial 6.5, final 6.7) of the same compound?
Answer: The value was 0 MPN per 100 ml.

Question: And the “E-Coli Phage” value (E-Coli Phage; pH initial 7.5, final 7.6)?
Answer: The value was 0 MPN per 100 ml.

Question: What about the “E-Coli Phage” value (E-Coli Phage; pH initial 8.2, final 8.1) of the same compound?
Answer: The value was 2 MPN per 100 ml.

Question: And the “E-Coli Phage” value (E-Coli Phage; pH initial 9.1, final 9.2)?
Answer: The value was 79 MPN per 100 ml.

Question: What about the “E-Coli Phage” value (E-Coli Phage; pH initial 10.0, final 10.0) of the same compound?
Answer: Its value is 79 MPN per 100 ml.
